Series [1] is described as follows: Pharmacokinetic analysis in rats (i.v., s.c., p.o.). The following applies: male, Sprague-Dawley, plasma, iv, 2 mg/kg, rat. Type of series: in vivo. The protocol: • 1. Intravenous (i.v.): 2 mg/kg • 2. Subcutaneous (s.c): 2 mg/kg • 3. Oral (p.o.): 8 mg/kg
Whole blood samples were chilled and immediately processed by centrifugation to obtain plasma.
Plasma samples were stored frozen (−70° C.) until analysis.

Series [2] deals with T1, human growth hormone secretagogue receptor (hGHS-R1a) (Homo sapiens, UniProt Q92847).
T1 construct: purchased PerkinElmer BioSignal #RBHGHSM; host or cells: HEK-293, stably transfected
T1 sequence (Q92847 whole entry): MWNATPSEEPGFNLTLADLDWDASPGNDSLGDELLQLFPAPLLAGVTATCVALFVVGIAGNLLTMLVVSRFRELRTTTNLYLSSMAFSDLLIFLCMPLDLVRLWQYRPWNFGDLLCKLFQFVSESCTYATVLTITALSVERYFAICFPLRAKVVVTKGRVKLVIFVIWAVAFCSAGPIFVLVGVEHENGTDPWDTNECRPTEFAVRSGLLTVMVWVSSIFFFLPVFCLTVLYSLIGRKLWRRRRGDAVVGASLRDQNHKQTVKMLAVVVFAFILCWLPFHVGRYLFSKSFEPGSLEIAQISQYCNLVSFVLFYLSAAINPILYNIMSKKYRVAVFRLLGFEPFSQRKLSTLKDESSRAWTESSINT
In words: Competitive radioligand binding assay (ghrelin receptor), [125I]-ghrelin displacement on GHS-R/HEK 293 membranes. As to conditions: Ki (nM).

The test system of series [3] is gastric emptying in fasted rats. In words: Gastric emptying in fasted rats (phenol red methylcellulose meal). The class given is in vivo, rat. The following applies: fasted rats. The protocol:
To examine the effects of compounds of the invention in a model for gastroparesis, compounds were evaluated for possible effects on gastric emptying in fasted rats.
GHRP-6 and test samples were dissolved in vehicle of 9% HPBCD/0.9% NaCl. Immediately following oral administration of methylcellulose (2%) containing phenol red (0.05%) (2 mL/rat), test substances or vehicle (9% HPBCD/0.9% NaCl) were each administered intravenously (i.v.) at a dosing volume of 5 mL/kg.
Male Wistar rats were provided by LASCO (A Charles River Licensee Corporation, Taiwan). Space allocation for 6 animals was 45×23×15 cm. Animals were housed in APEC® cages and maintained in a controlled temperature (22° C.-24° C.) and humidity (60% -80%) environment with 12 h light, 12 h dark cycles for at least one week in the laboratory prior to being used. Free access to standard lab chow for rats (Lab Diet, Rodent Diet, PMI Nutrition International, USA) and tap water was granted. All aspects of this work including housing, experimentation and disposal of animals were performed in general accordance with the Guide for the Care and Use of Laboratory Animals (National Academy Press, Washington, D.C., 1996).
Test substances were each administered intravenously to a group of 5 O/N-fasted Wistar derived male rats weighing 200±20 g immediately after methylcellulose (2%) containing phenol red (0.05%) was administered orally at 2 mL/animal. The animals were then sacrificed 15 minutes later. The stomach was immediately removed, homogenized in 0.1 N NaOH (5 mL) and centrifuged. Following protein precipitation by 20% trichloroacetic acid (0.5 mL)and re-alkalization of the supernatant with 0.1 N NaOH, total phenol red remaining in the stomach was determined by a colorimetric method at 560 nm. A 30 percent or more (≥30%) increase in gastric emptying, detected as the decrease in phenol red concentration in the stomach relative to the vehicle control group, is considered significant.
• 1. Overnight-fasted rats (male Wistar, ˜200 g, N=5/group) were given a meal of methylcellulose (2%) by intragastric gavage. The meal was labeled with phenol red (0.05%). • 2. […] Animals were sacrificed 15 minutes later; the stomach was immediately removed and homogenized in 0.1 N NaOH and centrifuged. • 4. Total phenol red remaining in the stomach was quantified by a colorimetric method at 560 nm. • 5. A >30% increase in gastric emptying, detected based on the phenol red concentration in comparison to the control group, is considered significant.

Series [4] deals with T2, human ghrelin receptor (hGHS-R1a) (Homo sapiens, UniProt Q92847).
T2 construct: host or cells: CHO-K1 co-expressing Gα16 and mitochondrially targeted aequorin
T2 sequence (Q92847 whole entry): as above
In words: Aequorin functional assay (ghrelin receptor), CHO-K1 cells co-expressing Gα16 and aequorin. Type of series: cell-based. The following applies: EC50 (nM), Table 4; functional (agonist) activity; TFA salts unless otherwise noted. The protocol:
This cell line is typically constructed by transfection of the human ghrelin receptor into CHO-K1 cells co-expressing Gα16 and the mitochondrially targeted Aequorin (Ref #ES-WT-A5). • 1. […] Assay buffer: DMEM (Dulbecco's Modified Eagles Medium) containing 0.1% BSA (bovine serum albumin; pH 7.0). • 3. Coelenterazine (Molecular Probes, Leiden, The Netherlands). • Final test concentrations (N=8) for compounds of the invention: 10, 1, 0.3, 0.1, 0.03, 0.01, 0.003, 0.001 μM.
Stock solutions of compounds (10 mM in 100% DMSO) were provided frozen on dry ice and stored at −20° C. prior to use. […] Assay plates were then prepared by appropriate dilution in DMEM medium containing 0.1% BSA. Under these conditions, the maximal final DMSO concentration in the assay was <0.6%.
AequoScreen™ cells were collected from culture plates with Ca^2+ and Mg^2+-free phosphate buffered saline (PBS) supplemented with 5 mM EDTA, pelleted for 2 min at 1000×g re-suspended in DMEM—Ham's F12 containing 0.1% BSA at a density of 5×10^6 cells/mL, and incubated O/N at rt in the presence of 5 μM coelenterazine. After loading, cells were diluted with assay buffer to a concentration of 5×10^5 cells/mL.
For agonist testing, 50 μL of the cell suspension was mixed with 50 μL of the appropriate concentration of test compound or ghrelin (reference agonist) in 96-well plates (duplicate samples). Ghrelin (reference agonist) was tested at several concentrations concurrently with the test compounds in order to validate the experiment. The emission of light resulting from receptor activation in response to ghrelin or test compounds was recorded using the Hamamatsu FDSS 6000 reader (Hamamatsu Photonics K.K., Japan).
Results were expressed as Relative Light Units (RLU). […] EC50, Hill slope and % Emax values are reported.
• 1. Assay performed on CHO-K1 cells expressing the transfected, cloned human ghrelin receptor (hGHS-R1a) and Gα16. • 2. Suspended cells incubated O/N with coelenterazine. • 3. Stimulation of hGHS-R1a activates Gα16, causing […] Ca2+ release which ultimately leads to the oxidation of coelenterazine and the emission of a quantitative luminescent signal. • 4. Ghrelin was used as the positive control. • 5.

Take `CCC(C)[C@@H]1NCCOc2ccccc2CCCNC(=O)[C@@H](Cc2ccc(Cl)cc2)NC(=O)[C@@H](C)N(C)C1=O` (stereo partly shown) [compound 25]: the clearance in series [1] is 67 mL/min/kg. Moreover, the half-life in series [1] (read-out: Elimination (t1/2, min)) was determined as 31 min. The Ki in series [2] (Binding activity at the human ghrelin receptor, [125I]-ghrelin displacement) lay within 0.1 to 10 nM; in series [2] (Table 4, TFA salts unless otherwise noted), 0.1 to 10 nM. Moreover, the gastric emptying result in series [3] (30 μg/kg) was “demonstrated gastric emptying”. Besides, the “increase in gastric emptying relative to the vehicle control group” value in series [3] (100 μg/kg i.v.) worked out at 39%. Besides, the EC50 in series [4] was 1 to 100 nM.
